Measurements as given in ChEMBL document CHEMBL1201862, “PubChem BioAssay data set” (2004).
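A five-concentration, 48-hour dose response in 96-well plates underlies each endpoint, interpolated linearly between surrounding concentrations. GI50 is the concentration that inhibits growth by half.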 Active and inactive are the calls of the source. Rule as the data show it: active = GI50 up to about 1.1 µM and inactive = higher.

Tests used:
Test in all cases: DTP human tumour cell line panel, 48 h
DMS-273 = system: DMS-273
HCT-15 = system: HCT-15
DLD-1 = system: DLD-1
HOP-18 = system: HOP-18
COLO 205 = system: COLO 205
DMS-114 = system: DMS-114
Malme-3M = system: Malme-3M
K562 = system: K562
RPMI-8226 = system: RPMI-8226
MOLT-4 = system: MOLT-4
ACHN = system: ACHN
XF498 = system: XF498
HOP-92 = system: HOP-92
NCI-H226 = system: NCI-H226
A498 = system: A498
OVCAR-3 = system: OVCAR-3
CCRF-CEM = system: CCRF-CEM
M14 = system: M14
SK-MEL-2 = system: SK-MEL-2
OVCAR-8 = system: OVCAR-8
NCI-H522 = system: NCI-H522
RXF 393 = system: RXF 393
CAKI-1 = system: CAKI-1
UACC-62 = system: UACC-62
A549 = system: A549
IGROV-1 = system: IGROV-1
KM-20L2 = system: KM-20L2
HT-29 = system: HT-29
HCC 2998 = system: HCC 2998
SNB-75 = system: SNB-75
EKVX = system: EKVX
SNB-19 = system: SNB-19
UACC-257 = system: UACC-257
NCI-H23 = system: NCI-H23
SN12C = system: SN12C
HCT-116 = system: HCT-116
LOX IMVI = system: LOX IMVI
UO-31 = system: UO-31
M19-MEL = system: M19-MEL
SR = system: SR
LXFL 529 = system: LXFL 529
SW-620 = system: SW-620
SK-MEL-5 = system: SK-MEL-5
NCI-H460 = system: NCI-H460
SK-OV-3 = system: SK-OV-3
SK-MEL-28 = system: SK-MEL-28
OVCAR-5 = system: OVCAR-5
786-0 = system: 786-0
U-251 = system: U-251
SNB-78 = system: SNB-78
TK-10 = system: TK-10
SF-539 = system: SF-539
SF-295 = system: SF-295
RXF 631 = system: RXF 631
OVCAR-4 = system: OVCAR-4
KM12 = system: KM12
SF-268 = system: SF-268
HOP-62 = system: HOP-62
HL-60 = system: HL-60

Cc1ccc(C)c(NC(=O)CCc2nnc(S)[nH]2)c1
GI50 (DMS-273): > 100 µM (inactive) | GI50 (HCT-15): 44.2 µM | GI50 (DLD-1): 54.1 µM (inactive) | GI50 (HOP-18): > 100 µM (inactive) | GI50 (COLO 205): > 100 µM (inactive) | GI50 (DMS-114): 28.7 µM (inactive) | GI50 (Malme-3M): > 100 µM (inactive) | GI50 (K562): > 100 µM (inactive) | GI50 (RPMI-8226): > 100 µM (inactive) | GI50 (MOLT-4): > 100 µM (inactive) | GI50 (ACHN): > 100 µM (inactive) | GI50 (XF498): > 100 µM (inactive) | GI50 (HOP-92): > 100 µM (inactive) | GI50 (NCI-H226): > 100 µM (inactive) | GI50 (A498): > 100 µM (inactive) | GI50 (OVCAR-3): > 100 µM (inactive) | GI50 (CCRF-CEM): > 100 µM (inactive) | GI50 (M14): > 100 µM (inactive) | GI50 (SK-MEL-2): > 100 µM (inactive) | GI50 (OVCAR-8): > 100 µM (inactive) | GI50 (NCI-H522): > 100 µM (inactive) | GI50 (RXF 393): > 100 µM (inactive) | GI50 (CAKI-1): > 100 µM (inactive) | GI50 (UACC-62): > 100 µM (inactive) | GI50 (A549): > 100 µM (inactive) | GI50 (IGROV-1): 86.7 µM (inactive) | GI50 (KM-20L2): > 100 µM (inactive) | GI50 (HT-29): > 100 µM (inactive) | GI50 (HCC 2998): > 100 µM (inactive) | GI50 (SNB-75): > 100 µM (inactive) | GI50 (EKVX): > 100 µM (inactive) | GI50 (SNB-19): > 100 µM (inactive) | GI50 (UACC-257): > 100 µM (inactive) | GI50 (NCI-H23): > 100 µM (inactive) | GI50 (SN12C): > 100 µM (inactive) | GI50 (HCT-116): 69.2 µM (inactive) | GI50 (LOX IMVI): > 100 µM (inactive) | GI50 (UO-31): > 100 µM (inactive) | GI50 (M19-MEL): > 100 µM (inactive) | GI50 (SR): 6.43 µM (inactive) | GI50 (LXFL 529): > 100 µM (inactive) | GI50 (SW-620): 17.4 µM (inactive) | GI50 (SK-MEL-5): > 100 µM (inactive) | GI50 (NCI-H460): > 100 µM (inactive) | GI50 (SK-OV-3): > 100 µM (inactive) | GI50 (SK-MEL-28): > 100 µM (inactive) | GI50 (OVCAR-5): > 100 µM (inactive) | GI50 (786-0): > 100 µM (inactive) | GI50 (U-251): > 100 µM (inactive) | GI50 (SNB-78): > 100 µM (inactive) | GI50 (TK-10): > 100 µM (inactive) | GI50 (SF-539): > 100 µM (inactive) | GI50 (SF-295): > 100 µM (inactive) | GI50 (RXF 631): > 100 µM (inactive) | GI50 (OVCAR-4): > 100 µM (inactive) | GI50 (KM12): > 100 µM (inactive) | GI50 (SF-268): > 100 µM (inactive) | GI50 (HOP-62): > 100 µM (inactive)

CCOC(=O)C(=O)Nc1c(C)cccc1C(C)C
GI50 (DMS-273): > 100 µM (inactive) | GI50 (HCT-15): > 100 µM | GI50 (DLD-1): > 100 µM (inactive) | GI50 (HOP-18): > 100 µM (inactive) | GI50 (COLO 205): > 100 µM (inactive) | GI50 (DMS-114): > 100 µM (inactive) | GI50 (Malme-3M): > 100 µM (inactive) | GI50 (K562): > 100 µM (inactive) | GI50 (RPMI-8226): > 100 µM (inactive) | GI50 (MOLT-4): > 100 µM (inactive) | GI50 (ACHN): > 100 µM (inactive) | GI50 (XF498): > 100 µM (inactive) | GI50 (HOP-92): > 100 µM (inactive) | GI50 (NCI-H226): > 100 µM (inactive) | GI50 (A498): > 100 µM (inactive) | GI50 (OVCAR-3): > 100 µM (inactive) | GI50 (CCRF-CEM): > 100 µM (inactive) | GI50 (M14): > 100 µM (inactive) | GI50 (SK-MEL-2): > 100 µM (inactive) | GI50 (HL-60): > 100 µM (inactive) | GI50 (OVCAR-8): > 100 µM (inactive) | GI50 (NCI-H522): > 100 µM (inactive) | GI50 (CAKI-1): > 100 µM (inactive) | GI50 (UACC-62): > 100 µM (inactive) | GI50 (A549): > 100 µM (inactive) | GI50 (IGROV-1): > 100 µM (inactive) | GI50 (KM-20L2): > 100 µM (inactive) | GI50 (HT-29): > 100 µM (inactive) | GI50 (SNB-75): 51.2 µM (inactive) | GI50 (EKVX): > 100 µM (inactive) | GI50 (SNB-19): > 100 µM (inactive) | GI50 (UACC-257): > 100 µM (inactive) | GI50 (NCI-H23): > 100 µM (inactive) | GI50 (SN12C): > 100 µM (inactive) | GI50 (HCT-116): > 100 µM (inactive) | GI50 (UO-31): > 100 µM (inactive) | GI50 (M19-MEL): > 100 µM (inactive) | GI50 (SR): > 100 µM (inactive) | GI50 (LXFL 529): > 100 µM (inactive) | GI50 (SW-620): > 100 µM (inactive) | GI50 (SK-MEL-5): > 100 µM (inactive) | GI50 (NCI-H460): > 100 µM (inactive) | GI50 (SK-OV-3): > 100 µM (inactive) | GI50 (SK-MEL-28): > 100 µM (inactive) | GI50 (OVCAR-5): > 100 µM (inactive) | GI50 (786-0): > 100 µM (inactive) | GI50 (U-251): > 100 µM (inactive) | GI50 (SNB-78): > 100 µM (inactive) | GI50 (TK-10): > 100 µM (inactive) | GI50 (SF-539): > 100 µM (inactive) | GI50 (SF-295): > 100 µM (inactive) | GI50 (RXF 631): > 100 µM (inactive) | GI50 (OVCAR-4): > 100 µM (inactive) | GI50 (KM12): > 100 µM (inactive) | GI50 (SF-268): > 100 µM (inactive) | GI50 (HOP-62): > 100 µM (inactive)
